Experimental data published in patent US7541466B2, “Tetrahydroisoquinoline derivatives for treating protein trafficking diseases” (Genzyme Corporation, priority 2003, dated 2009).

How the values were obtained:
ΔF508 CFTR = biological target: T1, ΔF508 CFTR (Homo sapiens, UniProt P13569, DEL508-508); assay: MQAE chloride transport assay in C127 cells expressing ΔF508 CFTR; format: cell-based, murine; conditions: for Emax: C127, plateau level in activity at high compound concentration, read-out: % of Maximal Response; for Emax / % of Maximal Response: as a percentage of the low temperature response; for EC50: chloride transport activity, C127 ΔF508 CFTR cells, MQAE; for % of Maximal Response: plateau level in activity at high compound concentration
T1 construct: expressed in transfected cells
T1 sequence (P13569 with tags, fused parts or gaps DEL508-508): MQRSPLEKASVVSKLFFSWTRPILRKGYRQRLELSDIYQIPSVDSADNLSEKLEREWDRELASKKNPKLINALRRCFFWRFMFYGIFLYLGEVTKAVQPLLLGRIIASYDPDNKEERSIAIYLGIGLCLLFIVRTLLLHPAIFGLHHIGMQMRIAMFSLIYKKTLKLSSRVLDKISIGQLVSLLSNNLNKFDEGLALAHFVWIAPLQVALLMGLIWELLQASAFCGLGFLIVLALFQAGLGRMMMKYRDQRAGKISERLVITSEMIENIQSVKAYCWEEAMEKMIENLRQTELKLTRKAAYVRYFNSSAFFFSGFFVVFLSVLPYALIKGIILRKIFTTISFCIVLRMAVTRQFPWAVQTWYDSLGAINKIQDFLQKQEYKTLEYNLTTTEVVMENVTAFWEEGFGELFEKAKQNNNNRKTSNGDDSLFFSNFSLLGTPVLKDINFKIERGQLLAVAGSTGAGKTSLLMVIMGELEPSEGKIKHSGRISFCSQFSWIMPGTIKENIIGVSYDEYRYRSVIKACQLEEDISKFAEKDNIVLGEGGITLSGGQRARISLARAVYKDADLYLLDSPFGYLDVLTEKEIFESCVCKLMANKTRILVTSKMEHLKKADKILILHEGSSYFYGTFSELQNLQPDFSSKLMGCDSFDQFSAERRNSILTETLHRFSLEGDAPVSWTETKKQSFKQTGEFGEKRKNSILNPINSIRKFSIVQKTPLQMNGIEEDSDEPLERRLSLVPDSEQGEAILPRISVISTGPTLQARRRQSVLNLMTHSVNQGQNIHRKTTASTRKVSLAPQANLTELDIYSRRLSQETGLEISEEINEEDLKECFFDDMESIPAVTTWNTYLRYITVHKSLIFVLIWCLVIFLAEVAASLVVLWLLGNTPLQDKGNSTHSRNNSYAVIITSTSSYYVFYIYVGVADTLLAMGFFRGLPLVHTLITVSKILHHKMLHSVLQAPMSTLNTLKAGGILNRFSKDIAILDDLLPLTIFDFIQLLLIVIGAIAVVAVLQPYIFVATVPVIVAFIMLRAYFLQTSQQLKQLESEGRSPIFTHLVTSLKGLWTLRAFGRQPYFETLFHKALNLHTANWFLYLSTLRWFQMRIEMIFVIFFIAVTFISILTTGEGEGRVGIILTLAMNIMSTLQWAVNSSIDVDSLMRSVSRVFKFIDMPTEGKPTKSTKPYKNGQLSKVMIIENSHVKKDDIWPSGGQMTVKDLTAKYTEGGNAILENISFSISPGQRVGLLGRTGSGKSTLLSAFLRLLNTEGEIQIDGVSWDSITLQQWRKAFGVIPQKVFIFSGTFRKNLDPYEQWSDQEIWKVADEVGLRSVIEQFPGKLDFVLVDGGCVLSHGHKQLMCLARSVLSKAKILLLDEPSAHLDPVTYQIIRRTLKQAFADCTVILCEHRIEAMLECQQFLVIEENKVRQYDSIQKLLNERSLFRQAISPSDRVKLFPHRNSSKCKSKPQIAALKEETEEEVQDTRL
Protocol: C127 cells are a murine mammary epithelial cell line obtained from ATCC (#CRL 1616, American Type Culture Collection, Manassas, Va.). C127 cells were transfected with a bovine papilloma virus-based eukaryotic expression vector containing genes for ΔF508 CFTR and neomycin resistance whose expression was driven by a metallothionein promoter. Clonal cell populations resistant to G418 and positive for staining with anti-CFTR antibody were identified.
C127 cells expressing ΔF508 CFTR were grown in microtiter plates in DMEM (Dulbecco's Modified Eagle Medium, Hyclone, Logan, Utah) supplemented with fetal bovine serum, antibiotics, and glutamine in a 37° C., 5% CO2 atmosphere. Once confluent, the cells were loaded overnight with the disclosed compounds and a fluorescent dye sensitive to chloride ion concentration, N-(ethoxycarbonylmethyl)-6-methoxy quinolinium bromide (MQAE) (Verkman, Am. J. Physiol. 259 C375-C388 (1990)).
The following day, cells were washed with chloride-containing buffer to remove extracellular MQAE and to quench intracellular MQAE fluorescence. Chloride buffer was flicked out and replaced with nitrate buffer with added forskolin and IBMX (isobutylmethylxanthine) to stimulate CFTR activity. […] Buffers were adjusted to pH 7.4 and contained: 10 mM HEPES (N-2-Hydroxyethylpiperazine-N′-2-ethanesulfonic acid), 2.4 mM K2HPO4, 0.6 mM KH2PO4, 1.0 mM CaSO4, 1.0 mM MgSO4, 150 mM NaCl or NaNO3, and 25 mM glucose.
The increase in MQAE fluorescence as a function of time was followed using 360 nm excitation and 460 nm emission wavelengths. Fluorescence increased as chloride flowed out of cells through CFTR and the rate of increase in fluorescence over the first five minutes was taken as a measure of chloride transport activity.
Cells were treated with mixtures of up to 100 compounds per well for ca. 18 hours before the assay for chloride transport activity. […] Dose-response curves were generated and compounds were ranked based on their EC50 values and maximal responses (the plateau level in activity at high compound concentration, as a percentage of the low temperature response).

[1] = tested on: wild-type C57black6/J mice; conditions: female wild-type mice; 4 g/kg/day dose for 2 days; previously measured; cited from earlier work

Structure (SMILES)	Emax (ΔF508 CFTR) [%]	EC50 (ΔF508 CFTR) [µM]	% of Maximal Response (ΔF508 CFTR) [%]	increase of forskolin response in RPD [1] [mV]
COc1ccc(NC(=O)[C@@H]2Cc3ccccc3CN2C(=O)c2cc(OC3CCCCC3)ccn2)cn1 [Compound 110]	64	0.4	–	–
CCOc1cccc(NC(=O)[C@@H]2Cc3ccccc3CN2C(=O)c2cc(OC3CCCCC3)ccn2)c1 [Compound 111]	73	0.15	–	–
CCCCCc1ccc(NC(=O)[C@@H]2Cc3ccccc3CN2C(=O)c2cccc(Oc3ccc(OC)cc3)c2)cc1 [Compound 112]	71	0.039	–	–
CCCCCc1ccc(NC(=O)[C@@H]2Cc3ccccc3CN2C(=O)c2cccc(OCc3ccccc3)c2)cc1 [Compound 114]	72	0.059	–	–
CCCCCc1ccc(NC(=O)[C@@H]2Cc3ccccc3CN2C(=O)c2ccc(OC)c(Oc3ccccc3)c2)cc1 [Compound 115]	74	–	–	–
CCCCCc1ccc(NC(=O)[C@@H]2Cc3ccccc3CN2C(=O)c2ccc(OC)c(OCc3ccccc3)c2)cc1 [Compound 116]	88	0.018	–	–
CCCCCc1ccc(NC(=O)[C@@H]2Cc3ccccc3CN2C(=O)c2cc(Oc3ccccc3)ccn2)cc1 [Compound 118]	79	–	–	–
CCCCCc1ccc(NC(=O)[C@@H]2Cc3ccccc3CN2C(=O)c2cccc(Oc3ccc(OCC)c(Oc4ccccc4)c3)c2)cc1 [Compound 121, (S)-2-[3-(4-Ethoxy-3-phenoxyphenoxy)benzoyl]-1,2,3,4-tetrahydroisoquinoline-3-carboxylic acid (4-pentylphenyl)amide]	–	0.0063	80	–
CCCCCc1ccc(NC(=O)[C@@H]2Cc3ccccc3CN2C(=O)c2cccc(OC(C)(C)C)c2)cc1 [Compound 122]	83	0.01	–	–
CCCCCc1ccc(NC(=O)[C@@H]2Cc3ccccc3CN2C(=O)c2cccc(CN3CCOCC3)c2)cc1 [Compound 123]	63	0.095	–	–
CCCCCc1ccc(NC(=O)[C@@H]2Cc3ccccc3CN2C(=O)c2ccc(OC)c(OC)c2)cc1 [Compound 127]	83	0.18	–	–
CCCCCc1ccc(NC(=O)[C@@H]2Cc3ccccc3CN2C(=O)c2ccc(OC)c(OCCN3CCOCC3)c2)cc1 [Compound 128, (S)-2-[4-Methoxy-3-(2-morpholin-4-yl-ethoxy)benzoyl]-1,2,3,4-tetrahydroisoquinoline-3-carboxylic acid (4-pentylphenyl)amide]	63	0.11	–	–
CCCCCc1ccc(NC(=O)[C@@H]2Cc3ccccc3CN2C(=O)c2cc(Cl)cc(Cl)c2)cc1 [Compound 133]	70	0.014	–	–
CCCCCc1ccc(NC(=O)[C@@H]2Cc3ccccc3CN2C(=O)c2ccc3c(c2)OCCO3)cc1 [Compound 135]	56	0.29	–	–
CCCCCc1ccc(NC(=O)[C@@H]2Cc3ccccc3CN2C(=O)c2cc(OCCN3CCOCC3)cc(OC(C)C)c2)cc1 [Compound 137]	69	0.18	–	–
CCCCCc1ccc(NC(=O)[C@@H]2Cc3ccccc3CN2C(=O)c2cc(OC)c(OC)c(OC)c2)cc1 [Compound 138]	67	0.093	–	–
CCCCCc1ccc(NC(=O)C2Cc3ccccc3CN2C(=O)c2cccc(OC(C)CC)c2)cc1 (stereo not shown) [Compound 140]	84	0.0044	–	–
CCCCCc1ccc(NC(=O)[C@@H]2Cc3ccccc3CN2C(=O)c2cccc(OC(CC)CC)c2)cc1 [Compound 141]	84	0.012	–	–
CCCCCc1ccc(NC(=O)[C@@H]2Cc3ccccc3CN2C(=O)c2cccc(OC(C)C(C)C)c2)cc1 (stereo partly shown) [Compound 142]	88	0.008	–	–
CCCCCc1ccc(NC(=O)[C@@H]2Cc3ccccc3CN2C(=O)c2ccc(C)c(OC(C)C)c2)cc1 [Compound 143]	85	0.0059	–	–
CCCCCc1ccc(NC(=O)[C@@H]2Cc3ccccc3CN2C(=O)c2cc(OC(C)C)c(OC)cn2)cc1 [Compound 145, (S)-2-(4-Isopropoxy-5-methoxypyridine-2-carbonyl)-1,2,3,4-tetrahydroisoquinoline-3-carboxylic acid(4-pentylphenyl)amide]	–	0.025	75	–
CCCCCc1ccc(NC(=O)[C@@H]2Cc3ccccc3CN2C(=O)c2cc(Oc3cccnc3)ccn2)cc1 [Compound 147]	32	0.041	–	–
C[N+](C)(C)[O-] [trimethylamine oxide, trimethylamine-N-oxide]	–	–	–	7.5
